Molecular target: Cav1.2 (voltage-dependent L-type calcium channel subunit alpha-1C) (Homo sapiens, UniProt Q13936)
Test: Inhibition of human Cav1.2 expressed in HEK293 cells assessed as reduction in Ca2+ uptake at 100 uM measured as first 2 mins sampled at a frequency of one sample every second and the last 12 min at a frequency of one sample every 5 secs by fluo-3AM-based FLIPR assay
Assay type: cell-based
Conditions: HEK293 cells that express human Cav1.2

Chain of Cav1.2 (voltage-dependent L-type calcium channel subunit alpha-1C) (Q13936 whole entry): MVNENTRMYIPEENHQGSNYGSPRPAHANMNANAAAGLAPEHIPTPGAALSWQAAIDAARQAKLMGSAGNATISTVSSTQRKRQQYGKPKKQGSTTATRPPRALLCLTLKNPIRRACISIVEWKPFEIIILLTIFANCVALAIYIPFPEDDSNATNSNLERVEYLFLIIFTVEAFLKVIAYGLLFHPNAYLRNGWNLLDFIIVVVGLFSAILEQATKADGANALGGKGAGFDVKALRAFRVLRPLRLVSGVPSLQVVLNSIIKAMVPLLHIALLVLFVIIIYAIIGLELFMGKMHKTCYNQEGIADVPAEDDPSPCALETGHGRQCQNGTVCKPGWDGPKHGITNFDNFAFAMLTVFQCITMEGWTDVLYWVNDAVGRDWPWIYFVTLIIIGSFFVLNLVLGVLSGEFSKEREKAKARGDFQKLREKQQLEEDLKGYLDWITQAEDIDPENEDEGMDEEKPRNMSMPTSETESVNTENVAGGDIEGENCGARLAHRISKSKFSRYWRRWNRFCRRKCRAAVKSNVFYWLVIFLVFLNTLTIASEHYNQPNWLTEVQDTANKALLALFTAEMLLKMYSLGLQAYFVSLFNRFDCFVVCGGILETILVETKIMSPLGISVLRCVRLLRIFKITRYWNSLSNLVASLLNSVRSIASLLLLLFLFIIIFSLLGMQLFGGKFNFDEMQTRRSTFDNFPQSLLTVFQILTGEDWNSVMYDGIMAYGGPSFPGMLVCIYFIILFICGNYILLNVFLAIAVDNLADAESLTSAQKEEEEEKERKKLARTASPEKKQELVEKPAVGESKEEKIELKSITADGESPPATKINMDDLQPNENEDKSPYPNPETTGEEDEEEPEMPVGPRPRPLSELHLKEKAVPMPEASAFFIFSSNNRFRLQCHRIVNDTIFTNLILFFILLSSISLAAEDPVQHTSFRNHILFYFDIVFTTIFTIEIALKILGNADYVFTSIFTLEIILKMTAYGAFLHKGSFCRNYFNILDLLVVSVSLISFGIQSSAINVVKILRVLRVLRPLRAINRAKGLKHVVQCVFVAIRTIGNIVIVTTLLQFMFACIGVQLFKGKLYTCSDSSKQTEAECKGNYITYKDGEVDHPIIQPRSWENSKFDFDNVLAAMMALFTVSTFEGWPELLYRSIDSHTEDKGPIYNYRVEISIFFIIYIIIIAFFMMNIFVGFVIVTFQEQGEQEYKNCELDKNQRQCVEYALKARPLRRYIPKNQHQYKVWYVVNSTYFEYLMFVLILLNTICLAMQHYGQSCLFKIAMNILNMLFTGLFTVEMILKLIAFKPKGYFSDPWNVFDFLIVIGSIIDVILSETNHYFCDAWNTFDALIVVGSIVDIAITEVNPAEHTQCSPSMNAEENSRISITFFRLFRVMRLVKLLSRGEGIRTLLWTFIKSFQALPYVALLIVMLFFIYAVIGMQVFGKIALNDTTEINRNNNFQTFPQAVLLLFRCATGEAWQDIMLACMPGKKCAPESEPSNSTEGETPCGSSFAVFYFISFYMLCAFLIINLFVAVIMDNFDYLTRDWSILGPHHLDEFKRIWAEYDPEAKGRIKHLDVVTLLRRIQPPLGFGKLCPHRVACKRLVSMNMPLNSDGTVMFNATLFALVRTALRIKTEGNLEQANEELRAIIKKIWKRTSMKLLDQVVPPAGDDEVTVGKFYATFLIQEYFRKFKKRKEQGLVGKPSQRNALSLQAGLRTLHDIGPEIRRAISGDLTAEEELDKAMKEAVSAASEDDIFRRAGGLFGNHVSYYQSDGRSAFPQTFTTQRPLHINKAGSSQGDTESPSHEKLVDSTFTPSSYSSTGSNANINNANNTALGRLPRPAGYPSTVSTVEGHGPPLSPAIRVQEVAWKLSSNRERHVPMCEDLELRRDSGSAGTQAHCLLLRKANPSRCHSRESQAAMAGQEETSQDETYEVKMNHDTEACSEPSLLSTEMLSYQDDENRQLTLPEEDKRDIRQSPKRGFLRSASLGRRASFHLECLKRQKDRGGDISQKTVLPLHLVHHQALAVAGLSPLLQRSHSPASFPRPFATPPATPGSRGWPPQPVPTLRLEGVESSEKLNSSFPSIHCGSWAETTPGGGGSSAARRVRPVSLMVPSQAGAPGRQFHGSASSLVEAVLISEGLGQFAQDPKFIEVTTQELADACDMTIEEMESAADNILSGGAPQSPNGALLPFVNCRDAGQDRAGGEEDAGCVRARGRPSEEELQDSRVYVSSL

Q: With CCOC(=O)C1=C(C)NC(=S)NC1c1cccc(O)c1 (stereo unspecified) [MONASTROL] as the molecule, how does the inhibition at 100 µM read?
A: 70%

From ChEMBL document CHEMBL4138169, “Biological activity of dihydropyrimidinone (DHPM) derivatives: A systematic review” (Eur J Med Chem, 2018)
